Data from patent US7368424B2, “Acylated nonadepsipeptides” (AiCuris GmbH & Co. KG, priority 2003, dated 2008).
≈ marks a conversion by molar mass, not a printed value. *1 amine or outer side, *2 acyl side, *3 side chain or, on linkers, in order; H or OH if unused. Where a SMILES comes first, the peptide text is derived from it. Bridges are numbered along the chain shown (N, C = ends). [ ]: non-standard residue; d: D form. Phe(3R-OH) = O=C([C@@H](N[*:1])[C@H](O[*:3])c1ccccc1)[*:2]; Asn(3S-OH) = NC(=O)[C@@H](O)[C@H](N)C(=O)O; Leu(3R-OH) = CC(C)[C@@H](O)[C@H](N)C(=O)O; Ala(SiMe3) = C[Si](C)(C)C[C@H](N)C(=O)O; dPhe(2-F) = N[C@H](Cc1ccccc1F)C(=O)O; Ala(cPr) = N[C@@H](CC1CC1)C(=O)O; tBuAla = CC(C)(C)C[C@H](N)C(=O)O; aThr = C[C@H](O)[C@H](N)C(=O)O; Aic = NC1(C(=O)O)Cc2ccccc2C1

How the values were obtained:
E. faecalis ICB 27159 = type: cell-based, Enterococcus faecalis; settings: ICB 27159
Experimental: (§1) Determination of the Minimum Inhibitory Concentration (MIC):
(§2) The MIC is determined in the liquid dilution test in accordance with the NCCLS guidelines. Overnight cultures of Staphylococcus aureus 133, Enterococcus faecalis 27159, E. faecium 4147 and Streptococcus pneumoniae G9a are incubated with the desired test substances in a 1:2 dilution series. The MIC determination is carried out with a cell count of 10^5 microbes per ml in Isosensitest medium (Difco, Irvine/USA), with the exception of S. pneumoniae which is tested in BHI broth (Difco, Irvine/USA) with 10% bovine serum with a cell count of 10^6 microbes per ml. The cultures are incubated at 37° C. for 18-24 hours, S. pneumoniae in the presence of 10% CO2.
(§3) The MIC is defined as the lowest concentration of each substance at which visible bacterial growth no longer occurs. The MIC values are reported in μg/ml.

E. faecium L4001 = type: cell-based, Enterococcus faecium; settings: L4001
[1] = test system: Staphylococcus aureus 133; type: cell-based; settings: 133
Experimental: as §1, §2, §3

[2] = test system: Streptococcus pneumoniae G9a; type: cell-based; settings: G9a
Experimental: as §1, §2, §3

Compound: CC[C@H](C)[C@@H]1NC(=O)[C@@H](CCCNC(=N)N)NC(=O)[C@H](CC(C)C)NC(=O)[C@H]([C@H](O)C(C)C)NC(=O)[C@@H](NC(=O)[C@H](CC2CC2)NC(=O)[C@H](N)CC(C)C)[C@@H](c2ccccc2)OC(=O)[C@H](CO)NC(=O)[C@H]([C@H](O)C(N)=O)NC(=O)CNC(=O)[C@H]([C@H](C)O)NC1=O.O=C(O)C(F)(F)F.O=C(O)C(F)(F)F [Example 1, D-leucyl-N^1-{(3S,6S,12S,15S,18R,21S,24S,27S,28R)-6-[(1S)-2-amino-1-hydroxy-2-oxoethyl]-18-(3-{[amino(imino)methyl]amino}propyl)-12-[(1S)-1-hydroxyethyl]-3-(hydroxymethyl)-24-[(1R)-1-hydroxy-2-methylpropyl]-21-isobutyl-15-[(1S)-1-methylpropyl]-2,5,8,11,14,17,20,23,26-nonaoxo-28-phenyl-1-oxa-4,7,10,13,16,19,22,25-octaazacyclooctacosan-27-yl}-3-cyclopropyl-L-alaninamide bistrifluoroacetate] (H-[dL][Ala(cPr)][Phe(3R-OH)][Leu(3R-OH)]L[dR]I[aThr]G[Asn(3S-OH)]S; ester 3-C)
- MIC E. faecalis ICB 27159 (E. faecalis ICB 27159): 0.5 mg/L
- MIC E. faecium L4001 (E. faecium L4001): 0.5 mg/L
- MIC S. aureus 133 [1]: 0.125 mg/L
- MIC S. pneumoniae [2]: 0.125 mg/L

Compound: CC[C@H](C)[C@@H]1NC(=O)[C@@H](CCCNC(=N)N)NC(=O)[C@H](CC(C)C)NC(=O)[C@H]([C@H](O)C(C)C)NC(=O)[C@@H](NC(=O)[C@H](CC(C)C)NC(=O)[C@H](N)CC(C)C)[C@@H](c2ccccc2)OC(=O)[C@H](CO)NC(=O)[C@H]([C@H](O)C(N)=O)NC(=O)CNC(=O)[C@H]([C@H](C)O)NC1=O.O=C(O)C(F)(F)F.O=C(O)C(F)(F)F [Example 1A, D-Leucyl-N^1-{(3S,6S,12S,15S,18R,21S,24S,27S,28R)-6-[(1S)-2-amino-1-hydroxy-2-oxoethyl]-18-(3-{[amino(imino)methyl]amino}propyl)-12-[(1S)-1-hydroxyethyl]-3-(hydroxymethyl)-24-[(1R)-1-hydroxy-2-methylpropyl]-21-isobutyl-15-[(1S)-1-methylpropyl]-2,5,8,11,14,17,20,23,26-nonaoxo-28-phenyl-1-oxa-4,7,10,13,16,19,22,25-octaazacyclooctacosan-27-yl}-L-leucinamide bistrifluoro-acetate, reference compound] (H-[dL]L[Phe(3R-OH)][Leu(3R-OH)]L[dR]I[aThr]G[Asn(3S-OH)]S; ester 3-C)
- MIC E. faecalis ICB 27159 (E. faecalis ICB 27159): 1 mg/L
- MIC E. faecium L4001 (E. faecium L4001): 0.5 mg/L
- MIC S. aureus 133 [1]: 0.25 mg/L
- MIC S. pneumoniae [2]: 0.063 mg/L

Compound: CC[C@H](C)[C@@H]1NC(=O)[C@@H](CCCNC(=N)N)NC(=O)[C@H](CC(C)C)NC(=O)[C@H]([C@H](O)C(C)C)NC(=O)[C@@H](NC(=O)[C@H](CC(C)(C)C)NC(=O)[C@H](N)CC(C)C)[C@@H](c2ccccc2)OC(=O)[C@H](CO)NC(=O)[C@H]([C@H](O)C(N)=O)NC(=O)CNC(=O)[C@H]([C@H](C)O)NC1=O [Example 3, D-leucyl-N^1-{(3S,6S,12S,15S,18R,21S,24S,27S,-28R)-6-[(1S)-2-amino-1-hydroxy-2-oxoethyl]-18-(3-{[amino(imino)methyl]amino}propyl)-12-[(1S)-1-hydroxyethyl]-3-(hydroxymethyl)-24-[(1R)-1-hydroxy-2-methylpropyl]-21-isobutyl-15-[(1S)-1-methylpropyl]-2,5,8,11,14,17,20,23,26-nonaoxo-28-phenyl-1-oxa-4,7,10,13,16,19,22,25-octaazacyclooctacosan-27-yl}-3-tert-butyl-L-alaninamide bistrifluoroacetate] (H-[dL][tBuAla][Phe(3R-OH)][Leu(3R-OH)]L[dR]I[aThr]G[Asn(3S-OH)]S; ester 3-C)
- MIC E. faecalis ICB 27159 (E. faecalis ICB 27159): 0.25 mg/L (≈ 0.194 µM)
- MIC E. faecium L4001 (E. faecium L4001): 0.25 mg/L (≈ 0.194 µM)
- MIC S. aureus 133 [1]: 0.125 mg/L (≈ 0.0969 µM)
- MIC S. pneumoniae [2]: 0.031 mg/L (≈ 0.024 µM)

Compound: CC[C@H](C)[C@@H]1NC(=O)[C@@H](CCCNC(=N)N)NC(=O)[C@H](CC(C)C)NC(=O)[C@H]([C@H](O)C(C)C)NC(=O)[C@@H](NC(=O)[C@H](CC(C)C)NC(=O)C2(N)Cc3ccccc3C2)[C@@H](c2ccccc2)OC(=O)[C@H](CO)NC(=O)[C@H]([C@H](O)C(N)=O)NC(=O)CNC(=O)[C@H]([C@H](C)O)NC1=O [Example 18, (2-Amino-2,3-dihydro-1H-indenylcarbonyl)-de(1-D-leucyl)lysobactin bistrifluoroacetate] (H-[Aic]L[Phe(3R-OH)][Leu(3R-OH)]L[dR]I[aThr]G[Asn(3S-OH)]S; ester 3-C)
- MIC E. faecalis ICB 27159 (E. faecalis ICB 27159): 1 mg/L (≈ 0.756 µM)
- MIC E. faecium L4001 (E. faecium L4001): 1 mg/L (≈ 0.756 µM)
- MIC S. aureus 133 [1]: 1 mg/L (≈ 0.756 µM)
- MIC S. pneumoniae [2]: 2 mg/L (≈ 1.51 µM)

Compound: CC[C@H](C)[C@@H]1NC(=O)[C@@H](CCCNC(=N)N)NC(=O)[C@H](CC(C)C)NC(=O)[C@H]([C@H](O)C(C)C)NC(=O)[C@@H](NC(=O)[C@H](CC(C)C)NC(=O)[C@H](N)Cc2ccccc2F)[C@@H](c2ccccc2)OC(=O)[C@H](CO)NC(=O)[C@H]([C@H](O)C(N)=O)NC(=O)CNC(=O)[C@H]([C@H](C)O)NC1=O [Example 23, (2-Fluoro-D-phenylalanyl)-de(1-D-leucyl)lysobactin bistrifluoroacetate] (H-[dPhe(2-F)]L[Phe(3R-OH)][Leu(3R-OH)]L[dR]I[aThr]G[Asn(3S-OH)]S; ester 3-C)
- MIC E. faecalis ICB 27159 (E. faecalis ICB 27159): 1 mg/L (≈ 0.753 µM)
- MIC E. faecium L4001 (E. faecium L4001): 0.5 mg/L (≈ 0.376 µM)
- MIC S. aureus 133 [1]: 0.125 mg/L (≈ 0.0941 µM)
- MIC S. pneumoniae [2]: 0.125 mg/L (≈ 0.0941 µM)

Compound: CC[C@H](C)[C@@H]1NC(=O)[C@@H](CCCNC(=N)N)NC(=O)[C@H](CC(C)C)NC(=O)[C@H]([C@H](O)C(C)C)NC(=O)[C@@H](NC(=O)[C@H](CC(C)C)NC(=O)[C@H](N)CCSC)[C@@H](c2ccccc2)OC(=O)[C@H](CO)NC(=O)[C@H]([C@H](O)C(N)=O)NC(=O)CNC(=O)[C@H]([C@H](C)O)NC1=O [Example 24, D-Methionyl-de(1-D-leucyl)lysobactin bistrifluoroacetate] (H-[dM]L[Phe(3R-OH)][Leu(3R-OH)]L[dR]I[aThr]G[Asn(3S-OH)]S; ester 3-C)
- MIC E. faecalis ICB 27159 (E. faecalis ICB 27159): 2 mg/L (≈ 1.54 µM)
- MIC E. faecium L4001 (E. faecium L4001): 1 mg/L (≈ 0.772 µM)
- MIC S. aureus 133 [1]: 0.25 mg/L (≈ 0.193 µM)
- MIC S. pneumoniae [2]: 0.5 mg/L (≈ 0.386 µM)

Compound: CC[C@H](C)[C@@H]1NC(=O)[C@@H](CCCNC(=N)N)NC(=O)[C@H](CC(C)C)NC(=O)[C@H]([C@H](O)C(C)C)NC(=O)[C@@H](NC(=O)[C@H](CC(C)C)NC(=O)[C@@H](N)C[Si](C)(C)C)[C@@H](c2ccccc2)OC(=O)[C@H](CO)NC(=O)[C@H]([C@H](O)C(N)=O)NC(=O)CNC(=O)[C@H]([C@H](C)O)NC1=O [Example 30, [3-(Trimethylsilyl)-L-alanyl]-de(1-D-leucyl)lysobactin bistrifluoroacetate] (H-[Ala(SiMe3)]L[Phe(3R-OH)][Leu(3R-OH)]L[dR]I[aThr]G[Asn(3S-OH)]S; ester 3-C)
- MIC E. faecalis ICB 27159 (E. faecalis ICB 27159): 1 mg/L (≈ 0.765 µM)
- MIC E. faecium L4001 (E. faecium L4001): 0.5 mg/L (≈ 0.383 µM)
- MIC S. aureus 133 [1]: 0.25 mg/L (≈ 0.191 µM)
- MIC S. pneumoniae [2]: 0.25 mg/L (≈ 0.191 µM)
